Data reported in US20090130064A1, “DIFFERENTIATION OF STEM CELLS AND STABILIZATION OF PHENOTYPICAL PROPERTIES OF PRIMARY CELLS” (priority 2004, published 2009).

Legend:
primary rat hepatocytes = experiment: Biotransformation in hepatocyte culture by HPLC with ESI-MS/UV; assay type: in vitro ADME; settings: 50 μM; after 20 hours
Experimental: Cells were cultured for 24 hours in the presence of EGF, alone or in combination with 4-Me2N-BAVAH; culture media were renewed and the expression of p21 was subsequently analyzed at short time intervals (0.5, 1, 6 and 24 hours) (FIG. 18B). In untreated EGF-stimulated hepatocytes, cyclin D1 and p21 proteins were induced 0.5 hour after medium renewal. A maximum was reached 24 hours later, namely after 48 hours of culture. As expected, no cyclin D1 and p21 proteins could be detected in 4-Me2N-BAVAH-treated cells, not even after short exposure periods (FIG. 18B). In addition, we quantified the biotransformation rate of 4-Me2N-BAVAH using high-performance liquid chromatography (HPLC) combined with simultaneous electrospray ionization mass spectrometric (ESI-MS)/UV detection. […] These findings clearly indicate that 4-Me2N-BAVAH interferes with the mitogenic effects of EGF resulting in a failure to induce cyclin D1 and p21 expression.

CYP 2B = experiment: Western blot of CYP 2B in primary rat hepatocytes; assay type: cell-based; settings: 50 μM
Description: Male outbred Sprague-Dawley rats (200-300 g, Iffa Credo, Brussels, Belgium) were kept under controlled environmental conditions (12-hr light-dark cycle) and fed a standard diet (Animalabo A04, water ad libitum). Hepatocytes were isolated by a two-step collagenase perfusion as described (De Smet et al. In ‘Methods in Molecular Biology, Vol. 107: Cytochrome P450 Protocols’, Philips I R and Shephard E A, eds., pp 295-301, Humana Press, Totowa, 1998). Cell viability was >90% as determined by trypan blue exclusion. Cells (0.4×10^5 cells/cm^2) were plated in MEM/M199 (3:1), containing BSA (1 mg/ml), bovine insulin (10 μg/ml), L-glutamine (2 mM), FBS (10% v/v) and antibiotics (7.3 IU/ml benzyl penicillin, 50 μg/ml streptomycin sulphate, 50 μg/ml kanamycin monosulphate and 10 μg/ml sodium ampicillin). Four hours after plating, serum-containing medium was removed and fresh serum-free medium was added to the cultures. Culture medium was refreshed daily. EGF (50 ng/ml) was added 4 hours after plating. A 100 mM stock solution of 4-Me2N-BAVAH was prepared in ethanol.

GSTM = GSTM iso-enzyme activity in cultured rat hepatocytes; assay type: cell-based; settings: TSA started at 4 h; day 4 and 7
Description: (§1) Hepatocytes were isolated from male Sprague-Dawley rats by a two-step collagenase perfusion as described (De Smet et al. In ‘Methods in Molecular Biology, Vol. 107: Cytochrome P450 Protocols’, Philips IR and Shephard E A, eds., p.p 295-301, Humana Press, Totowa, 1998). Hepatocytes were cultivated in monolayer cultures with Willam's E Medium (WE) for 7 days. […] The maintenance of differentiation characteristics was studied after 2, 4, and 7 days (D2, D4, D7) of culture.
In order to investigate Phase II biotransformation, total cytosolic glutathione S-transferase (GST) activity and activities of individual GSTA, GSTP, and GSTM iso-enzymes were measured using standard techniques known in the art. (i.e., measuring conjugation of reduced glutathione with 1-chloro-2,4-dinitrobenzene for total GST; measuring conjugation of reduced glutathione with 7-chloro-4-nitrobenzo-2-oxa-1,3-diazole for GSTA activity; measuring conjugation of reduced glutathione with ethacrynic acid for GSTP activity; and measuring conjugation of reduced glutathione with 1,2-dichloro-4-nitrobenzene for GSTM activity).

C/EBPalpha = experiment: Western blotting of C/EBPalpha in primary hepatocytes; assay type: cell-based, rat; settings: 1 μM TSA added at 0h or 4 h; day 4 and 7
Description: as §1
Western blotting was performed using standard techniques known in the art. Proteins (25 μg) were resolved on a 10% SDS-PAGE and blotted onto nitrocellulose membrane. The membranes were incubated with appropriate concentrations of primary and secondary antibodies. Proteins were detected using appropriate dilutions of primary and secondary antibodies. Detection was done using the ECL detection system (Amersham Pharmacia Biotech, UK) according to manufacturer's recommendations.

[1] = Biotransformation by rat liver microsomes; assay type: in vitro ADME; settings: 140 μM TSA, 150 min
Experimental: Human liver specimens (n=3) were acquired from organ donors at the Academic Hospital of the VUB in accordance with the regulations of the local Medical Ethical Committee and immediately frozen in liquid nitrogen. While human liver microsomes were prepared from frozen liver tissue, rat livers (n=3) were freshly isolated for immediate microsome preparation. Microsomal 7-ethoxyresorufin-O-deethylase (EROD) [31]was used as a marker enzyme to evaluate the microsomal biotransformation activity before and after storage. Incubations were carried out in a 100 mM sodium potassium phosphate buffer pH 7.4 in the presence of a NADPH-generating system (0.5 mM NADP^+, 10 mM glucose 6-phosphate, 2 U/ml glucose 6-phosphate dehydrogenase and 0.6 mM MgCl2). Microsomes (0.0-2.0 mg microsomal protein/ml) were incubated with 140 μM substrate at 37° C. for 150 min. Boiled microsomes ([…]) served as a control. Biotransformation reactions were initiated by addition of substrate and, at selected time intervals, terminated by dilution with ice-cold acetonitrile (1:2.5).
After centrifugation (2000 g, 45 min, 4° C.) of the diluted microsomal samples, the clear supernatant was injected onto a HPLC column. Samples from incubations with hepatocytes were thawed on ice and centrifugated (120 g, 2 min). […]

SMILES	metabolites detected in culture (primary rat hepatocytes)	expression of CYP 2B (CYP 2B)	activity of GSTM iso-enzyme (GSTM)	expression of C/EBPalpha (C/EBPalpha)	biotransformation in microsome suspensions [1]
CN(C)c1ccc(C(=O)NCCCCC(=O)NO)cc1 [4-Me2N-BAVAH, 5-(4-dimethylaminobenzoyl)-aminovaleric acid hydroxamide]	No metabolites of the compound could be detected	Increased Expression	–	–	–
CC(C=CC(=O)NO)=CC(C)C(=O)c1ccc(N(C)C)cc1 (centres unmarked) [TSA]	–	–	stimulated	increase expression	slow and incomplete biotransformation
